Assay results reported in patent US10494360B2, “Inhibitors of indoleamine 2,3-dioxygenase” (NETHERLANDS TRANSLATIONAL RESEARCH CENTER B.V., priority 2016, dated 2019).
Where “and” joins values, the source holds several entries; their conditions need not be identical. Equal values may be shown once.

Target: IDO1 (Homo sapiens, UniProt P14902)
Assay: Biochemical IDO1 assay (NFK GreenScreen)
Set-up: Recombinant full-length IDO1 (Seegers, N., et al.) and all other assay components were diluted in IDO1 reaction buffer; made in house
Settings: for IC50: recombinant full-length IDO1 25 nM, L-tryptophan 100 μM, NFK Green detection, read-out: IC50, inhibitory potency on IDO1; for relative activity of separated isomers: less active / most active isomer of the pair, assay not given
Method: Inhibition of IDO1 activity can be measured by determining the enzymatic conversion of L-tryptophan into N-formylkynurenine (NFK) in a reaction mixture containing IDO1 and test compound. The formation of NFK can be detected directly by, for instance, high-performance liquid chromatography (HPLC) methods, or by intrinsic fluorescence.
Compounds were serially diluted in dimethylsulfoxide (DMSO) and finally in IDO1 reaction buffer, consisting of 50 mM NaH2PO4, pH7.0, supplemented with 0.05% Tween-20 (cat. No. P7949; Sigma Aldrich) and 1% glycerol. Recombinant full-length IDO1 (Seegers, N., et al.) and all other assay components were diluted in IDO1 reaction buffer. […] Subsequently, 10 μl of 0.4 mM of the substrate L-tryptophan was added, i.e., the final concentration of L-tryptophan was 100 μM. The DMSO concentration in the assay was 0.3%. […] Incubation was continued for 60 min at room temperature. Then, 10 μl of NFK Green™ (NTRC, Oss, The Netherlands) was added, the plate was sealed, and the reaction was developed for 3 hours at 37° C. To determine the production of N-formyl kynurenine (NFK), the seal was removed and fluorescence was read on an EnVision multimode reader (Perkin Elmer, Waltham, Mass., USA). IC50 were calculated using XLfit™ software (ID Business Solutions, Ltd., Surrey, U.K.).

IDO1, sequence (P14902 whole entry, species assumed): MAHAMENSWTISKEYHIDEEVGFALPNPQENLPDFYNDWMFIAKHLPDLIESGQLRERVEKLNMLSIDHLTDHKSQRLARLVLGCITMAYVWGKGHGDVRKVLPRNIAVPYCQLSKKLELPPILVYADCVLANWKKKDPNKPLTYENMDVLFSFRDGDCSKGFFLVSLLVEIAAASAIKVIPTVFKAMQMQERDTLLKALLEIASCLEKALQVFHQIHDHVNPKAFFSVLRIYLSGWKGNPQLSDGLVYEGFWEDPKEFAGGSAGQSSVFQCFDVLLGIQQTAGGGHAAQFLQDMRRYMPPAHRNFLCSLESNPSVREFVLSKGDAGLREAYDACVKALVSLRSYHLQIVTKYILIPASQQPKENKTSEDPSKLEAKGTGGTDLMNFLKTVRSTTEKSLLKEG

| SMILES | IC50 | relative activity of separated isomers |
| --- | --- | --- |
| CCOC(=O)NC[C@H]1CC[C@H](C(=O)N2CC(=O)N(O)C2c2cccc(Br)c2)CC1 (relative stereo) [Example 102, (Trans)-ethyl N-[[4-[2-(3-bromophenyl)-3-hydroxy-4-oxo-imidazolidine-1-carbonyl]cyclohexyl]-methyl]carbamate] | ≤ 5 µM and 1 to 5 µM |  |
| C[C@@H]1C(=O)N(O)C(c2cccc(Br)c2)N1C(=O)c1ccccc1F (single isomer, unassigned) [Example 57] | ≤ 5 µM and 1 to 5 µM |  |
| O=C1CN(C(=O)c2ccccc2)C(c2cccc(Br)c2)N1O (single isomer, unassigned) [Example 63a, 1-benzoyl-2-(3-bromophenyl)-3-hydroxy-imidazolidin-4-one] | ≤ 1 µM |  |
| O=C1CN(C(=O)c2ccccc2)C(c2cccc(Br)c2)N1O (single isomer, unassigned) [Example 63b, 1-benzoyl-2-(3-bromophenyl)-3-hydroxy-imidazolidin-4-one] | ≤ 5 µM and 1 to 5 µM |  |
| O=C1CN(C(=O)c2ccccc2)C(c2cccc(Br)c2)N1O (single isomer, unassigned) [Example 64, 1-benzoyl-2-(3-bromophenyl)-3-hydroxy-imidazolidin-4-one] | ≤ 5 µM and 1 to 5 µM |  |
| O=C1CN(C(=O)c2ccccc2)C(c2cccc(C(F)(F)F)c2)N1O (stereo not shown) [Example 1, 1-Benzoyl-3-hydroxy-2-[3-(trifluoromethyl)phenyl]imidazolidin-4-one] | ≤ 5 µM and 1 to 5 µM |  |
| O=C1CN(C(=O)c2ccccc2F)C(c2ccc(Cl)c(C(F)(F)F)c2)N1O (stereo not shown) [Example 8, 2-[4-Chloro-3-(trifluoromethyl)phenyl]-1-(2-fluorobenzoyl)-3-hydroxy-imidazolidin-4-one] | ≤ 5 µM and 1 to 5 µM |  |
| O=C1CN(C(=O)c2c(F)cccc2Cl)C(c2cccc(Cl)c2)N1O (stereo not shown) [Example 14, 1-(2-Chloro-6-fluoro-benzoyl)-2-(3-chlorophenyl)-3-hydroxy-imidazolidin-4-one] | ≤ 5 µM and 1 to 5 µM |  |
| O=C1CN(C(=O)c2ccc(Cl)cc2Cl)C(c2cccc(Br)c2)N1O (stereo not shown) [Example 16, 2-(3-Bromophenyl)-1-(2,4-dichlorobenzoyl)-3-hydroxy-imidazolidin-4-one] | ≤ 5 µM and 1 to 5 µM |  |
| COc1ccc(C(=O)N2CC(=O)N(O)C2c2cccc(Br)c2)cc1 (stereo not shown) [Example 18, 2-(3-Bromophenyl)-3-hydroxy-1-(4-methoxybenzoyl)imidazolidin-4-one] | ≤ 5 µM and 1 to 5 µM |  |
| Cc1ccccc1C(=O)N1CC(=O)N(O)C1c1cccc(Br)c1 (stereo not shown) [Example 20, 2-(3-Bromophenyl)-3-hydroxy-1-(2-methylbenzoyl)imidazolidin-4-one] | ≤ 5 µM and 1 to 5 µM |  |
| O=C1CN(C(=O)C2CCC2)C(c2ccc(F)c(Br)c2)N1O (stereo not shown) [Example 23, 2-(3-Bromo-4-fluoro-phenyl)-1-(cyclobutanecarbonyl)-3-hydroxy-imidazolidin-4-one] | ≤ 5 µM and 1 to 5 µM |  |
| O=C1CN(C(=O)c2ccccc2Br)C(c2cccc(Br)c2)N1O (stereo not shown) [Example 24, 1-(2-Bromobenzoyl)-2-(3-bromophenyl)-3-hydroxy-imidazolidin-4-one] | ≤ 5 µM and 1 to 5 µM |  |
| O=C1CN(C(=O)c2ccccc2C(F)(F)F)C(c2cccc(Br)c2)N1O (stereo not shown) [Example 28, 2-(3-Bromophenyl)-3-hydroxy-1-[2-(trifluoromethyl)benzoyl]imidazolidin-4-one] | ≤ 5 µM and 1 to 5 µM |  |
| O=C1CN(C(=O)c2ccc(F)cc2)C(c2cccc(Br)c2)N1O (stereo not shown) [Example 29, 2-(3-Bromophenyl)-1-(4-fluorobenzoyl)-3-hydroxy-imidazolidin-4-one] | ≤ 5 µM and 1 to 5 µM |  |
| O=C1CN(C(=O)c2ccc(F)cc2Cl)C(c2cccc(Br)c2)N1O (stereo not shown) [Example 30, 2-(3-Bromophenyl)-1-(2-chloro-4-fluoro-benzoyl)-3-hydroxy-imidazolidin-4-one] | ≤ 5 µM and 1 to 5 µM |  |
| O=C1CN(C(=O)c2cc(F)ccc2Cl)C(c2cccc(Br)c2)N1O (stereo not shown) [Example 31, 2-(3-Bromophenyl)-1-(2-chloro-5-fluoro-benzoyl)-3-hydroxy-imidazolidin-4-one] | ≤ 5 µM and 1 to 5 µM |  |
| O=C1CN(C(=O)c2cccc(F)c2)C(c2cccc(Br)c2)N1O (stereo not shown) [Example 36, 2-(3-Bromophenyl)-1-(3-fluorobenzoyl)-3-hydroxy-imidazolidin-4-one] | ≤ 1 µM |  |
| O=C1CN(C(=O)c2c(F)cccc2C(F)(F)F)C(c2cccc(Br)c2)N1O (stereo not shown) [Example 37, 2-(3-Bromophenyl)-1-[2-fluoro-6-(trifluoromethyl)benzoyl]-3-hydroxy-imidazolidin-4-one] | ≤ 1 µM |  |
| O=C1CN(C(=O)c2ccc(C(F)(F)F)cc2F)C(c2cccc(Br)c2)N1O (stereo not shown) [Example 38, 2-(3-Bromophenyl)-1-[2-fluoro-4-(trifluoromethyl)benzoyl]-3-hydroxy-imidazolidin-4-one] | ≤ 5 µM and 1 to 5 µM |  |
| O=C1CN(C(=O)c2ccc(F)cc2)C(c2ccc(F)c(Br)c2)N1O (stereo not shown) [Example 40, 2-(3-Bromo-4-fluoro-phenyl)-1-(4-fluorobenzoyl)-3-hydroxy-imidazolidin-4-one] | ≤ 5 µM and 1 to 5 µM |  |
| COc1ccc(C(=O)N2CC(=O)N(O)C2c2ccc(F)c(Br)c2)cc1 (stereo not shown) [Example 47, 2-(3-Bromo-4-fluoro-phenyl)-3-hydroxy-1-(4-methoxybenzoyl)imidazolidin-4-one] | ≤ 5 µM and 1 to 5 µM |  |
| O=C1CN(C(=O)c2c(Cl)cccc2Cl)C(c2ccc(F)c(Br)c2)N1O (stereo not shown) [Example 48, 2-(3-Bromo-4-fluoro-phenyl)-1-(2,6-dichlorobenzoyl)-3-hydroxy-imidazolidin-4-one] | ≤ 5 µM and 1 to 5 µM |  |

The next lines start with the values.

| IC50 | relative activity of separated isomers | SMILES |
| --- | --- | --- |
|  | less active isomer | C[C@@H](c1ccccc1)N1CC(=O)N(O)C1c1cccc(Br)c1 (single isomer, unassigned) [Example 139a] |
| ≤ 1 µM | most active isomer | C[C@@H](c1ccccc1)N1CC(=O)N(O)C1c1cccc(I)c1 (single isomer, unassigned) [Example 140b] |
| ≤ 1 µM | most active isomer | O=C1CN(C(=O)c2c(F)cccc2F)C(c2cccc(Br)c2)N1O (single isomer, unassigned) [Example 142b, 2-(3-bromophenyl)-1-(2,6-difluorobenzoyl)-3-hydroxy-imidazolidin-4-one] |
| ≤ 5 µM and 1 to 5 µM | less active isomer | O=C1CN(C(=O)c2c(F)cccc2Cl)C(c2ccc(F)c(Br)c2)N1O (single isomer, unassigned) [Example 143a, 2-(3-bromo-4-fluoro-phenyl)-1-(2-chloro-6-fluoro-benzoyl)-3-hydroxy-imidazolidin-4-one] |
| ≤ 1 µM | most active isomer | O=C1CN(C(=O)c2c(F)cccc2Cl)C(c2ccc(F)c(Br)c2)N1O (single isomer, unassigned) [Example 143b, 2-(3-bromo-4-fluoro-phenyl)-1-(2-chloro-6-fluoro-benzoyl)-3-hydroxy-imidazolidin-4-one] |
| ≤ 1 µM | less active isomer | O=C1CN(C(=O)c2c(F)cc(C#CC3CC3)cc2F)C(c2cccc(Br)c2)N1O (single isomer, unassigned) [Example 144a, 2-(3-bromophenyl)-1-[4-(2-cyclopropylethynyl)-2,6-difluoro-benzoyl]-3-hydroxy-imidazolidin-4-one] |
| ≤ 1 µM | most active isomer | O=C1CN(C(=O)c2c(F)cc(C#CC3CC3)cc2F)C(c2cccc(Br)c2)N1O (single isomer, unassigned) [Example 144b, 2-(3-bromophenyl)-1-[4-(2-cyclopropylethynyl)-2,6-difluoro-benzoyl]-3-hydroxy-imidazolidin-4-one] |
| ≤ 1 µM | less active isomer | O=C1CN(Cc2c(F)cccc2F)C(c2cccc(Br)c2)N1O (single isomer, unassigned) [Example 145a, 2-(3-bromophenyl)-1-[(2,6-difluorophenyl)methyl]-3-hydroxy-imidazolidin-4-one] |
| ≤ 1 µM | most active isomer | O=C1CN(Cc2c(F)cccc2F)C(c2cccc(Br)c2)N1O (single isomer, unassigned) [Example 145b, 2-(3-bromophenyl)-1-[(2,6-difluorophenyl)methyl]-3-hydroxy-imidazolidin-4-one] |
| ≤ 1 µM | less active isomer | O=C1CN(Cc2ccccc2F)C(c2cccc(I)c2)N1O (single isomer, unassigned) [Example 146a, 1-[(2-fluorophenyl)methyl]-3-hydroxy-2-(3-iodophenyl)imidazolidin-4-one] |
| ≤ 1 µM | most active isomer | O=C1CN(Cc2ccccc2F)C(c2cccc(I)c2)N1O (single isomer, unassigned) [Example 146b, 1-[(2-fluorophenyl)methyl]-3-hydroxy-2-(3-iodophenyl)imidazolidin-4-one] |
| ≤ 1 µM | most active isomer | NS(=O)(=O)NCC#Cc1cc(F)c(C(=O)N2CC(=O)N(O)C2c2cccc(Br)c2)c(F)c1 (single isomer, unassigned) [Example 147b, 2-(3-bromophenyl)-1-[2,6-difluoro-4-[3-(sulfamoylamino)prop-1-ynyl]benzoyl]-3-hydroxy-4-oxo-imidazolidine] |
